Test results as given in patent US9730944B2, “Antiviral activity of novel bicyclic heterocycles” (priority 2010, dated 2017).
Converted amounts (≈) assume the structure as drawn. Where two headings read alike, the source gives them in different places.

Columns and labels:
genotype 1b replicon = experiment: HCV genotype 1b replicon potency in R-luc cells, bioluminescence; type: cell-based; details: 72 hours, average of two or more independent experiments ± std. dev, read-out: Stable replicon cell lines EC50 (μM) Genotype1b (R-luc)
[1] = test system: genotype 1a H-77 replicon; experiment: HCV genotype 1a replicon potency in GLuc-1 cells, bioluminescence; type: cell-based; details: 72 hours, average of two or more independent experiments ± std. dev, read-out: Stable replicon cell lines EC50 (μM) Genotype 1a (Gluc-1)
[2] = test system: infectious genotype 2a virus (a J6/JFH-1 chimera); experiment: JFH-1 HCV-2a virus assay in Lunet-CD81 cells, NS3 expression readout; type: cell-based
[3] = Cytotoxicity in HCV-1a replicon cells, Promega CellTiter-Glo cell viability assay
[4] = test system: genotype 1a H-77 replicon; experiment: HCV-1a replicon potency in RLuc-1 cells, bioluminescence; type: cell-based; details: for HCV-1a Replicon Selectivity Index: CC50/EC50, genotype 1a replicon; for EC50: Hepatitis C virus, 72 h, read-out: HCV-1a Replicon EC50 (μM)
[5] = Cytotoxicity in G-luc replicon cells, Promega CellTiter-Glo cell viability assay; details: G-luc (GLuc-1) HCV genotype 1a H-77 replicon cells
in vitro [6] = details: human
hRV-45 = experiment: Rhinovirus type 45 antiviral assay in Hela Rh cells, MTS readout; type: cell-based, Human rhinovirus; details: Human rhinovirus sp., HRV45, HeLa Rh, Hela Rh cells; read-out: hRV-45 EC50
HIV-1 strain IIIB = experiment: Inhibition of replication of HIV-1 (IIIB strain) in MT-4 cells, MTT assay; type: cell-based; details: Human immunodeficiency virus 1, IIIB, MT4, 120 h; MT-4 cells, MTT assay, five days after infection, 50% protection from cytopathic effect; read-out: EC50 (μM) HIV-1 (IIIB)
in vitro [7] = details: African green monkey, PV CC50
hRV-9 = experiment: Rhinovirus type 9 antiviral assay in Hela Rh cells, MTS readout; type: cell-based, Human rhinovirus; details: Human rhinovirus sp., HRV9, HeLa Rh, Hela Rh cells; read-out: hRV-9 EC50
hRV-63 = experiment: Rhinovirus type 63 antiviral assay in Hela Rh cells, MTS readout; type: cell-based, Human rhinovirus; details: Human rhinovirus sp., HRV63, HeLa Rh, Hela Rh cells; read-out: hRV-63 EC50
HIV-2 strain (ROD) = experiment: Inhibition of replication of HIV-2 (ROD strain) in MT-4 cells, MTT assay; type: cell-based; details: Human immunodeficiency virus 2, MT4, 120 h; MT-4 cells, MTT assay, five days after infection, 50% protection from cytopathic effect; read-out: EC50 (μM) HIV-2 (ROD)
poliovirus (PV type 1) = experiment: microbe, parasite or virus in culture; type: cell-based; details: Enterovirus C, read-out: PV-1 EC50
[8] = Cytostatic/cytotoxic effect in Hela Rh cells (rhinovirus methodology, MTS); details: human, CC50, Hela Rh cells
hRV-42 = experiment: Rhinovirus type 42 antiviral assay in Hela Rh cells, MTS readout; type: cell-based, Human rhinovirus; details: Human rhinovirus sp., HRV42, HeLa Rh, Hela Rh cells; read-out: hRV-42 EC50
hRV-70 = experiment: Rhinovirus type 70 antiviral assay in Hela Rh cells, MTS readout; type: cell-based, Human rhinovirus; details: Human rhinovirus sp., HRV70, HeLa Rh, Hela Rh cells; read-out: hRV-70 EC50
hRV-39 = experiment: Rhinovirus type 39 antiviral assay in Hela Rh cells, MTS readout; type: cell-based, Human rhinovirus; details: Human rhinovirus sp., HRV39, HeLa Rh, Hela Rh cells; read-out: hRV-39 EC50
in vitro [9] = details: human, PV CC50
hRV-14 = experiment: Rhinovirus type 14 antiviral assay in Hela Rh cells, MTS readout; type: cell-based, Human rhinovirus; details: Rhinovirus B, HRV14, HeLa Rh, Hela Rh cells; read-out: hRV-14 EC50
poliovirus (PV type 3) = experiment: microbe, parasite or virus in culture; type: cell-based; details: Enterovirus C, read-out: PV-3 EC50
hRV-2 = experiment: Rhinovirus type 2 antiviral assay in Hela Rh cells, MTS readout; type: cell-based, Human rhinovirus; details: Rhinovirus A, HRV2, HeLa Rh, Hela Rh cells; read-out: hRV-2 EC50
hRV-15 = experiment: Rhinovirus type 15 antiviral assay in Hela Rh cells, MTS readout; type: cell-based, Human rhinovirus; details: Human rhinovirus sp., HRV15, HeLa Rh, Hela Rh cells; read-out: hRV-15 EC50
poliovirus (PV type 2) = experiment: microbe, parasite or virus in culture; type: cell-based; details: Enterovirus C, read-out: PV-2 EC50
hRV-41 = experiment: Rhinovirus type 41 antiviral assay in Hela Rh cells, MTS readout; type: cell-based, Human rhinovirus; details: Human rhinovirus sp., HRV41, HeLa Rh, Hela Rh cells; read-out: hRV-41 EC50
hRV-72 = experiment: Rhinovirus type 72 antiviral assay in Hela Rh cells, MTS readout; type: cell-based, Human rhinovirus; details: Human rhinovirus sp., HRV72, HeLa Rh, Hela Rh cells; read-out: hRV-72 EC50
hRV-85 = experiment: Rhinovirus type 85 antiviral assay in Hela Rh cells, MTS readout; type: cell-based, Human rhinovirus; details: Human rhinovirus sp., HRV85, HeLa Rh, Hela Rh cells; read-out: hRV-85 EC50
hRV-29 = experiment: Rhinovirus type 29 antiviral assay in Hela Rh cells, MTS readout; type: cell-based; details: Human rhinovirus sp., HRV29, HeLa Rh, Hela Rh cells; read-out: hRV-29 EC50
hRV-86 = experiment: Rhinovirus type 86 antiviral assay in Hela Rh cells, MTS readout; type: cell-based, Human rhinovirus; details: Human rhinovirus sp., HRV86, HeLa Rh, Hela Rh cells; read-out: hRV-86 EC50
[10] = Hepatitis C virus, 72 h, read-out: Genotype 2a Virus (Lunet-CD81) EC50 (μM)

Which EC50 (genotype 1b replicon) does the source give for `C[C@@]1(O)[C@H](O)[C@@H](CO)O[C@H]1n1cnc2c(N)ncnc21` [2′CMA] here?
The EC50 was 0.3 ± 0.02 µM.

What about the EC50 [1] of the same molecule?
Its EC50 is 0.23 ± 0.3 µM.

And the EC50 ([2]; J6/JFH-1 chimera, MOI of 1, 72 hours, NS3 readout, read-out: Genotype 2a Virus (Lunet-CD81) EC50)?
The EC50 was 0.3 ± 0.03 µM.

For `CSc1nc2c(N3CCN(C(=O)COc4ccc(Cl)cc4)CC3)nc(N)nc2n1C` [Example 428, 1-(4-(2-amino-9-methyl-8-(methylthio)-9H-purin-6-yl)piperazin-1-yl)-2-(4-chlorophenoxy)ethanone], which CC50 at 72 h [3] is on record?
Its CC50 at 72 h is > 44.4 µM.

And the “HCV-1a Replicon Selectivity Index” value [4]?
Its value is >888.

And the EC50 [4]?
The EC50 was 0.05 µM.

What about the CC50 at 72 h [5] of the same molecule?
Its CC50 at 72 h is > 50 µM.

What about the EC50 (genotype 1b replicon; Hepatitis C virus) of the same molecule?
The EC50 was 0.005 ± 0.002 µM.

What about the EC50 ([1]; Hepatitis C virus) of the same molecule?
Its EC50 is 0.056 ± 0.002 µM.

And the EC50 [2, 10]?
Its EC50 is > 50 µM.

What does the source list for `Nc1nc(N2CCN(C(=O)COc3ccc(Br)cc3)CC2)c2nc(CCc3ccc(F)cc3)sc2n1` [Example 52, 1-(4-(5-amino-2-(4-fluorophenethyl)thiazolo[5,4-d]pyrimidin-7-yl)piperazin-1-yl)-2-(4-bromophenoxy)ethanone]?
CC50 (in vitro [6]): 95.7 µM; CC50 at 72 h [3]: > 44.4 µM; EC50 (hRV-45): > 50 µg/mL; HCV-1a Replicon Selectivity Index [4]: >1.3; EC50 [4]: 35.3 µM; EC50 (HIV-1 strain IIIB): 2.71 µM; CC50 (in vitro [7]): 111 µg/mL (≈ 195 µM); EC50 (hRV-9): > 50 µg/mL; EC50 (hRV-63): > 50 µg/mL; EC50 (HIV-2 strain (ROD)): > 95.7 µM; EC50 (poliovirus (PV type 1); HeLa): 0.39 µg/mL (≈ 0.682 µM); EC50 (poliovirus (PV type 1); Vero): 0.12 µg/mL (≈ 0.21 µM); CC50 [8]: > 50 µg/mL; EC50 (hRV-42): > 50 µg/mL; EC50 (hRV-70): > 50 µg/mL; EC50 (hRV-39): 30.7 µg/mL (≈ 53.7 µM); CC50 (in vitro [9]): > 50 µg/mL; EC50 (hRV-14): > 50 µg/mL; EC50 (poliovirus (PV type 3); HeLa): > 50 µg/mL; EC50 (poliovirus (PV type 3); Vero): 0.49 µg/mL (≈ 0.857 µM); EC50 (hRV-2): 15.7 µg/mL (≈ 27.5 µM); EC50 (hRV-15): > 50 µg/mL; EC50 (poliovirus (PV type 2); HeLa): 0.38 µg/mL (≈ 0.665 µM); EC50 (poliovirus (PV type 2); Vero): 0.1 µg/mL (≈ 0.175 µM); EC50 (hRV-41): > 50 µg/mL; EC50 (hRV-72): > 50 µg/mL; EC50 (hRV-85): 21.9 µg/mL (≈ 38.4 µM); EC50 (hRV-29): > 50 µg/mL; EC50 (hRV-86): > 50 µg/mL

What does the source list for `Nc1nc(N2CCN(C(=O)COc3ccc(Cl)cc3)CC2)c2nc(C3CC3)[nH]c2n1` [Example 398, 1-(4-(2-amino-8-cyclopropyl-9H-purin-6-yl)piperazin-1-yl)-2-(4-chlorophenoxy)ethanone]?
CC50 at 72 h [3]: > 44.4 µM; HCV-1a Replicon Selectivity Index [4]: >143; EC50 [4]: 0.3 µM; CC50 at 72 h [5]: > 50 µM; EC50 (genotype 1b replicon; Hepatitis C virus): 0.192 ± 0.008 µM; EC50 ([1]; Hepatitis C virus): 0.274 ± 0.04 µM; EC50 [2, 10]: 29 µM

Which results are given for `Nc1nc(N2CCN(C(=O)COc3ccccc3)CC2)c2nc(-c3ccc(F)cc3)[nH]c2n1` [Example 401, 1-(4-(2-amino-8-(4-fluorophenyl)-9H-purin-6-yl)piperazin-1-yl)-2-phenoxyethanone]?
CC50 at 72 h [3]: 20.4 µM; HCV-1a Replicon Selectivity Index [4]: 26.5; EC50 [4]: 0.8 µM; CC50 at 72 h [5]: > 50 µM; EC50 (genotype 1b replicon; Hepatitis C virus): 0.081 ± 0.041 µM; EC50 ([1]; Hepatitis C virus): 0.059 ± 0.008 µM; EC50 [2, 10]: 15.4 µM
